# Source: article PMC8204385 (Biophysical Journal, 2021)
# Several values for one entry are separate records, joined by “and”; a condition that tells them apart may be missing. Equal entries are not always repeated.
# Biological target: T1, human SHP-1 (Homo sapiens, UniProt P29350)
# T1 construct: 6xHis (N); made in house; host or cells: Escherichia coli BL21-CodonPlus (DE3)-RIPL
# Assay: SPR-based assay for tethered SHP-1 reactions on immobilised phosphopeptides, extended MPDPDE model fit
# Assay type: binding
# [1] = SPR, 37°C, MPDPDE fit, mean ± SE of N experiments
# T1 sequence (P29350 whole entry): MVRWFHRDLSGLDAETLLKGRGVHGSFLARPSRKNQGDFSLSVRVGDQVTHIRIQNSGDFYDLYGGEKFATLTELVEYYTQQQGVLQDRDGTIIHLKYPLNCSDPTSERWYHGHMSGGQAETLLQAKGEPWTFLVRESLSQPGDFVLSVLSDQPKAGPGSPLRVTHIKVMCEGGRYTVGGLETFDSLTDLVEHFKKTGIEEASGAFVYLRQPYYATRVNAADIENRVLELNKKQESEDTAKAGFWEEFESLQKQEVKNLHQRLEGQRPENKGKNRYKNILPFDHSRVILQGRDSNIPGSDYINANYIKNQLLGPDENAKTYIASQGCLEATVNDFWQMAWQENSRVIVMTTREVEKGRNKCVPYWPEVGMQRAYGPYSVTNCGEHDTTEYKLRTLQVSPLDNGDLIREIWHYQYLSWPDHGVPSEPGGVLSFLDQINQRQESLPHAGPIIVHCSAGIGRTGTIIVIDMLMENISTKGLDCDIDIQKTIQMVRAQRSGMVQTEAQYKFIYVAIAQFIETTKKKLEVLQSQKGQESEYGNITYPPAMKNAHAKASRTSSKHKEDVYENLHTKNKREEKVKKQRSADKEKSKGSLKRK
substance,measurement,setting,value
"biotin-QLRRRGKTNHYQTTVEKK SLTIYAQVQKPGPLQKKLD SFPA QDPCTTIYVAATEPVPESVQET NSITVY^∗ASVTLPES [SLAM, N-terminally biotinylated singly phosphorylated peptide of the cytoplasmic tail of SLAM, 77 aa]",molecular reach contributed by the peptide tail (LPD-1 or LSLAM),"37°C, ((L^2 − LSHP-1^2)/2)^1/2 with LSHP-1 = 13.0 nm",20.1 nm and 20 nm
same,kon,"SPR Biacore T200, 37°C, 10 μL/min, SHP-1 injected 45 s over biotinylated phosphopeptide on streptavidin CM5 chip, HEPES pH 7.4, MPDPDE fit, mean ± SE of N experiments",20000 ± 10000 M⁻¹ s⁻¹
same,"allosteric activation of SHP-1, ratio kcat(tethered)/kcat(solution)","SPR, 37°C",6.2 fold
same,Kd,"SPR, 37°C, KD = koff/kon, mean ± SE of N experiments",130 ± 40 µM
same,"L, molecular reach of the reaction","SPR, 37°C, L = (σ*)^−1/3 from averaged σ*, ± SE",31.2 ± 1.2 nm
same,kcat(solution),[1],5800 ± 1000 M⁻¹ s⁻¹
same,kcat(tethered),[1],36000 ± 3000 M⁻¹ s⁻¹
same,koff,[1],1.7 ± 0.2 s⁻¹
same,σ* (local concentration),[1],55 ± 6 µM
